Patent US11174268B2, “Benzenesulfonamide compouds and their use as therapeutic agents” (Xenon Pharmaceuticals Inc., priority 2016, dated 2021)
pIC50: −log10 of the molar value. Where two headings read alike, the source gives them in different places.

Experiments:
NaV1.5 = NaV1.5 (Homo sapiens (Human), UniProt Q14524); experiment: Sodium Influx Assay (Flux), NaV1.5
NaV1.1 = NaV1.1 (Homo sapiens (Human), UniProt P35498); experiment: Sodium Influx Assay (Flux), NaV1.1; assay type: cell-based; details: Trex HEK293 cells, ANG2 dye, inactivated state;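 also: channels co-expressed with human β1 subunit and held open by modulators, cells exposed to compounds for one hour at room temperature, IC50 from percent inhibition of influx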
NaV1.6 = NaV1.6 (Homo sapiens (Human), UniProt Q9UQD0); experiment: Sodium Influx Assay (Flux), NaV1.6; assay type: cell-based; details: Trex HEK293 cells, ANG2 dye, inactivated state;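 also: Tetracycline-induced cells, compounds applied for one hour at room temperature with modulators holding channels open, IC50 from percent inhibition of sodium influx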
[1] = read-out: Flux NaV1.5 IC50, Trex HEK293 cells, ANG2 dye, inactivated state

Sequence of NaV1.5 (Q14524 other isoform, or with tags, fused parts or gaps): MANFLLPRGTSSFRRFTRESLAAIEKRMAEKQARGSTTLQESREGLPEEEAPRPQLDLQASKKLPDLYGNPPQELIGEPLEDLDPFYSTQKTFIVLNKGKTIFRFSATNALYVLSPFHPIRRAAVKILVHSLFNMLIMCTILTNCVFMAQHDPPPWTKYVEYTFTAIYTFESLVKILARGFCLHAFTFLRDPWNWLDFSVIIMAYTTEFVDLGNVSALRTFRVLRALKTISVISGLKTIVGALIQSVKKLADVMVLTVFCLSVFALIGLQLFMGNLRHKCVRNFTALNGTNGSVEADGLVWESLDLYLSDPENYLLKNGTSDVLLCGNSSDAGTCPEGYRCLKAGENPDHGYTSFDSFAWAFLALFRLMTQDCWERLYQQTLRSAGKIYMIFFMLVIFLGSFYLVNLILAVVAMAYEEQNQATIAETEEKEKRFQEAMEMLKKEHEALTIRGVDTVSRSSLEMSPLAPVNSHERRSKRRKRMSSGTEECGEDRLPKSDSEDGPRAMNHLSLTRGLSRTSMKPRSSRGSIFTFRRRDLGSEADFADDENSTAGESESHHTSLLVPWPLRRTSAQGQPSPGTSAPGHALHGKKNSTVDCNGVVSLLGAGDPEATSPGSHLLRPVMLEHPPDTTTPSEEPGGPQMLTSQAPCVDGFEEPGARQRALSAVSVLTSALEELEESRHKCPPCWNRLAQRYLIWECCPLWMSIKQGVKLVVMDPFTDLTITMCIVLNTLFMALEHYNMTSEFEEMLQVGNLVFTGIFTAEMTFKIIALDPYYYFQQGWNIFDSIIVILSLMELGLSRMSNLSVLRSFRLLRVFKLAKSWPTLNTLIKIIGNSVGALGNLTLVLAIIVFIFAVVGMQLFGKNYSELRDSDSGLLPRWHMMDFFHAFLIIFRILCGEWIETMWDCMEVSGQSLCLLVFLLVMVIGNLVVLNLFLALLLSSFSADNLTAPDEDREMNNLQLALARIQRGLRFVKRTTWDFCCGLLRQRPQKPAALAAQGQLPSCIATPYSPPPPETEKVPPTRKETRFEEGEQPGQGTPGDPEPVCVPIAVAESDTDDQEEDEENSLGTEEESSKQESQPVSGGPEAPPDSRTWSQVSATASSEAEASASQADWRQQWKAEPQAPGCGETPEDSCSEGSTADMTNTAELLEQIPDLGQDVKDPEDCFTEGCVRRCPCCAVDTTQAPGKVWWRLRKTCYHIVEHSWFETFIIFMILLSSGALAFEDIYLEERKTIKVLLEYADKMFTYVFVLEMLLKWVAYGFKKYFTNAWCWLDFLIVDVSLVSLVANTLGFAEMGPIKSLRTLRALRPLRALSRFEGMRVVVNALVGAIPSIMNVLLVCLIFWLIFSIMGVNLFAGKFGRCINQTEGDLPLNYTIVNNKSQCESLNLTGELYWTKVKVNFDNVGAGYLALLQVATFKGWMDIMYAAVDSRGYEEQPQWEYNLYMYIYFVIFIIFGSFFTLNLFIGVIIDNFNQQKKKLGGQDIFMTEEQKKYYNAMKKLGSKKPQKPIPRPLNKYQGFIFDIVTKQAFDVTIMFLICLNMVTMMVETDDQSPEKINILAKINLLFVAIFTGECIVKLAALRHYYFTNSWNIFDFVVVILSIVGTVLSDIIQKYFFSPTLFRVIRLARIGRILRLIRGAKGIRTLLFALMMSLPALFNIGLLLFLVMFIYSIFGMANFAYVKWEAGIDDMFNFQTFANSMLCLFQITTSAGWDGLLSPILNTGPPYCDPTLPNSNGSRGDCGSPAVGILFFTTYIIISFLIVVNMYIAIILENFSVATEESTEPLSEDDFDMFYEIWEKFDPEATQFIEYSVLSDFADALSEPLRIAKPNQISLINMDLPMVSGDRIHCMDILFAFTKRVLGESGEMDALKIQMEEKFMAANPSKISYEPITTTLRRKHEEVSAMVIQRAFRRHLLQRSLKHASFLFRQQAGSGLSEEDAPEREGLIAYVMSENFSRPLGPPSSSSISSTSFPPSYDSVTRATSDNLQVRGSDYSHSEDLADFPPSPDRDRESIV

Structure (SMILES) | pIC50 (NaV1.1) | pIC50 (NaV1.6) | pIC50 (NaV1.5; [1]) | pIC50 (NaV1.5)
CN(Cc1cccc(F)c1CNc1ccc(S(=O)(=O)Nc2cscn2)c(F)c1F)C(C)(C)C [Example 203, 4-((2-((tert-butyl(methyl)amino)methyl)-6-fluorobenzyl)amino)-2,3-difluoro-N-(thiazol-4-yl)benzenesulfonamide 2,2,2-trifluoroacetate] | 4.58 | 6.65 | 4.55 | 
CCc1cccc(CN2CCC2)c1CNc1cc(F)c(S(=O)(=O)Nc2cscn2)c(F)c1 [Example 210, 4-((2-(azetidin-1-ylmethyl)-6-ethylbenzyl)amino)-2,6-difluoro-N-(thiazol-4-yl)benzenesulfonamide 2,2,2-trifluoroacetate] | 5.43 | 6.38 | 4.57 | 
O=S(=O)(Nc1cscn1)c1c(F)cc(NCc2c(CN3CCC3)cccc2C2CC2)cc1F [Example 211, 4-((2-(azetidin-1-ylmethyl)-6-cyclopropylbenzyl)amino)-2,6-difluoro-N-(thiazol-4-yl)benzenesulfonamide 2,2,2-trifluoroacetate] | 5.47 | 5.76 | 4.72 | 
COC(C)(C)C1CN(Cc2ccccc2CNc2cc(F)c(S(=O)(=O)Nc3cscn3)c(F)c2)C1 [Example 214, 2,6-difluoro-4-((2-((3-(2-methoxypropan-2-yl)azetidin-1-yl)methyl)benzyl)amino)-N-(thiazol-4-yl)benzenesulfonamide 2,2,2-trifluoroacetate] | 4.87 | 6.49 | 4.79 | 
O=S(=O)(Nc1cscn1)c1cc(Cl)c(OC2(c3ccccc3)CC2)cc1F [Example 221, 5-chloro-2-fluoro-4-(1-phenylcyclopropoxy)-N-(thiazol-4-yl)benzenesulfonamide] | 4.60 | 5.33 | 4.72 | 
C[C@H](Nc1cc(F)c(S(=O)(=O)Nc2cscn2)cc1Cl)c1cc(F)cc(F)c1 [Example 223, (S)-5-chloro-4-((1-(3,5-difluorophenyl)ethyl)amino)-2-fluoro-N-(thiazol-4-yl)benzenesulfonamide] | 5.43 | 5.37 |  | 4.91
Cc1cccc(Cl)c1CNc1cc(F)c(S(=O)(=O)Nc2cscn2)cc1Cl [Example 226, 5-chloro-4-((2-chloro-6-methylbenzyl)amino)-2-fluoro-N-(thiazol-4-yl)benzenesulfonamide] | 4.70 | 5.09 | 4.95 | 
C[C@H](Nc1cc(F)c(S(=O)(=O)Nc2cscn2)cc1Cl)c1cc(CC(F)F)ccc1F [Example 227, (S)-5-chloro-4-((1-(5-(2,2-difluoroethyl)-2-fluorophenyl)ethyl)amino)-2-fluoro-N-(thiazol-4-yl)benzenesulfonamide] | 5.06 | 5.90 | 5.07 | 
COCc1ccc(F)c([C@H](C)Nc2cc(F)c(S(=O)(=O)Nc3cscn3)c(F)c2)c1 [Example 228, (S)-2,6-difluoro-4-((1-(2-fluoro-5-(methoxymethyl)phenyl)ethyl)amino)-N-(thiazol-4-yl)benzenesulfonamide] | 4.88 | 5.71 | 4.56 | 
C[C@H](Nc1cc(F)c(S(=O)(=O)Nc2cscn2)cc1Cl)c1cc(C#N)ccc1F [Example 229, (S)-5-chloro-4-((1-(5-cyano-2-fluorophenyl)ethyl)amino)-2-fluoro-N-(thiazol-4-yl)benzenesulfonamide] | 4.52 | 6.02 | 4.52 | 
O=S(=O)(Nc1cscn1)c1c(F)cc(NC2(c3ccccc3)CC2)cc1F [Example 231, 2,6-difluoro-4-[(1-phenylcyclopropyl)amino]-N-thiazol-4-yl-benzenesulfonamide] | 4.76 | 5.38 | 4.52 | 
C[C@H](Nc1cc(F)c(S(=O)(=O)Nc2cscn2)c(F)c1)c1cc(C(F)F)ccc1F [Example 233, (S)-4-((1-(5-(difluoromethyl)-2-fluorophenyl)ethyl)amino)-2,6-difluoro-N-(thiazol-4-yl)benzenesulfonamide] | 5.51 | 6.10 | 4.91 | 

Now from value to compound, other results behind:

pIC50 (NaV1.1) | pIC50 (NaV1.6) | Structure (SMILES) | pIC50 (NaV1.5; [1]) | pIC50 (NaV1.5)
5.00 | 6.23 | C[C@H](Nc1cc(F)c(S(=O)(=O)Nc2ccncn2)c(F)c1)c1cc(F)ccc1F [Example 208, (S)-4-((1-(2,5-difluorophenyl)ethyl)amino)-2,6-difluoro-N-(pyrimidin-4-yl)benzenesulfonamide 2,2,2-trifluoroacetate] | 4.52 | 
4.52 | 5.51 | Cc1cc(NS(=O)(=O)c2c(F)cc(NCc3c(F)ccc(F)c3CN3CCC3)cc2F)no1 [Example 216, 4-((2-(azetidin-1-ylmethyl)-3,6-difluorobenzyl)amino)-2,6-difluoro-N-(5-methylisoxazol-3-yl)benzenesulfonamide 2,2,2-trifluoroacetate] | 4.52 | 
4.82 | 6.15 | CN(C)Cc1ccccc1C1(Nc2cc(F)c(S(=O)(=O)Nc3cscn3)cc2Cl)CC1 [Example 217, 5-chloro-4-((1-(2-((dimethylamino)methyl)phenyl)cyclopropyl)-amino)-2-fluoro-N-(thiazol-4-yl)benzenesulfonamide 2,2,2-trifluoroacetate] | 4.94 | 
4.55 | 5.49 | COCc1cccc(F)c1CNc1cc(F)c(S(=O)(=O)Nc2cscn2)cc1Cl [Example 218, 5-chloro-2-fluoro-4-((2-fluoro-6-(methoxymethyl)benzyl)amino)-N-(thiazol-4-yl)benzenesulfonamide] | 4.68 | 
4.52 | 6.55 | Cc1cc(S(=O)(=O)Nc2ccon2)c(F)cc1NCc1c(F)cccc1CN1CCC1 [Example 219, 4-((2-(azetidin-1-ylmethyl)-6-fluorobenzyl)amino)-2-fluoro-N-(isoxazol-3-yl)-5-methylbenzenesulfonamide] | 4.52 | 
5.67 | 6.71 | O=S(=O)(Nc1nccs1)c1cc(Cl)c(NC2(c3ccccc3F)CC2)cc1F [Example 220, 5-chloro-2-fluoro-4-((1-(2-fluorophenyl)cyclopropyl)amino)-N-(thiazol-2-yl)benzenesulfonamide] | 5.50 | 
5.40 | 5.72 | CC[C@H](Nc1cc(F)c(S(=O)(=O)Nc2cscn2)cc1Cl)c1ccccc1Cl [Example 222, (S)-5-chloro-4-((1-(2-chlorophenyl)propyl)amino)-2-fluoro-N-(thiazol-4-yl)benzenesulfonamide] | 5.08 | 
5.11 | 5.29 | O=S(=O)(Nc1cscn1)c1cc(Cl)c(NC2(c3ccc(F)cc3F)CC2)cc1F [Example 224, 5-chloro-4-((1-(2,4-difluorophenyl)cyclopropyl)amino)-2-fluoro-N-(thiazol-4-yl)benzenesulfonamide] | 4.52 | 
4.67 | 5.76 | C[C@H](Oc1cc(F)c(S(=O)(=O)Nc2cscn2)c(F)c1)c1ccccc1F [Example 232, (S)-2,6-difluoro-4-(1-(2-fluorophenyl)ethoxy)-N-(thiazol-4-yl)benzenesulfonamide] | 4.95 | 
5.34 | 6.17 | C[C@H](Nc1cc(F)c(S(=O)(=O)Nc2cscn2)cc1Cl)c1cc(O)ccc1F [Example 234, (S)-5-chloro-2-fluoro-4-((1-(2-fluoro-5-hydroxyphenyl)ethyl)amino)-N-(thiazol-4-yl)benzenesulfonamide] | 5.06 | 
